For series [1], the system named is hippocampal neurons. Put plainly: Histological analysis of brain (cresyl violet) seven days after ICV infusion. Particulars: Quisqualate 500 µmoles ICV, rats. The format is in vivo.
The test system of the next series is male F344 rats. Put plainly: Behavioral analysis after ICV infusion (quisqualate excitotoxicity model). Format: in vivo. On the procedure:
(§1) The animals used in this experiment were male F344 rats (Charles River Breeding Laboratories). The animals were housed individually, exposed to a 12-hour light-dark cycle, and allowed free access to food and water. The animals weighed approximately 250 g at the beginning of each experiment and were weighed daily. In addition, the animals were habituated to handling before each experiment.
(§2) Before administering various compounds, the animals were anesthetized with sodium pentobarbital (50 mg/kg, i.p.) and positioned in a sterotaxic instrument. A 26 gauge cannula was inserted into the cerebral ventricle at the following co-ordinates: 1.0 mm posterior to bregma, 1.5 mm lateral to the midline, and 4.0 mm below the dorsal surface of the neocortex. Cannulas were capped and fixed in place with dental cement. One week after cannulation, 10 µl of each of the treatment drugs was infused, ICV (i.e. into the ventricals of the brain), via a micropump at a rate of 10 µl/min. For this procedure, the animals were lightly restrained and unanesthetized. Following administration of the compound, the infusion cannula remained in position for one minute, after which the permanent in situ cannula was capped.
(§3) The compounds administered were obtained from a commercial supplier (Sigma Chemical Co., St. Louis, MO) and dissolved in saline prior to injection. These compounds included quisqualate (injected at doses ranging from 100 nmole/10 µl to 1 µmole/10 µl), lysocerebroside, and lysophingomyelin (which were injected at doses of 25 nmoles/10 µl to 150 nmoles/10 µl).
(§4) Pilot studies identified several specific behavioral measures that could be used to indicate excessive activation of the metabotropic receptor (see Table 3). […] The experiments that follow were based on an analysis of these behaviors over a two hour period after administration of the compounds of the invention. Behavioral observation was carried out by two trained observers, who worked independently of one another and who were blind to the experimental groups. […] Frequency and duration means were computed by subtracting pre-infusion means from post-infusion means.
(§5) The experiment began one week after ICV cannulation. […] Following the baseline observation period, animals received the first of two ICV infusions (all infusions were of a 10 µl volume that was administered over a 1 minute period). For the first five groups listed above, this consisted of saline (10 µl/minute), for the following 3 groups the infusions were psychosine at 125 nmoles, lysosphingomyelin at 125 nmoles, or lysosphingomyelin at 150 nmoles, respectively. Thirty minutes later, all animals received the second infusion which, for the first five groups listed above, consisted of saline, quisqualate at 225 nmoles, psychosine at 125 nmoles, lysosphingomyelin at 125 nmoles, and lysosphingomyelin at 150 nmoles respectively. […] Following the second infusion animals were returned to their cages, and observed continuously over the subsequent 2 hours.

Experiment in series [2]: as above
The format is in vivo, rats. Particulars: rat, in vivo, icv or intrathecal, rats. Here is the method:
as §1, §2, §3, §4, §5

The subject of series [3] is hippocampal neurons. Put plainly: Histological analysis of brain (cresyl violet) seven days after ICV infusion. The format is in vivo, rats. Here is the method: as §1, §2, §3
Seven days after the compounds were administered, animals were sacrificed by transcardial perfusion with neutralized, buffered 10% formalin-saline. Their brains were removed, post-fixed overnight in 10% formalin-saline, and sectioned along the coronal plane (into 50 µm thick sections) on a freezing microtome. The sections were stained with cresyl violet to determine the extent of cellular destruction. […]
Given that high concentrations of metabotropic receptors are located in the hippocampus, and that the hippocampus is particularly vulnerable to the effects of a variety of insults including ischemia and hypoxia, this region was examined for evidence of neuronal degeneration due to glutamate excitoxicity.

In series [4] the test system is primary chick cortical neurons. Put plainly: Phosphoinositide hydrolysis assay (InsP3 production) in cultured primary cortical neurons. Particulars: Gallus gallus, Cortical neurone, 20 min, read-out: Ins-P-n. Format: cell-based. On the procedure: The neurons were seeded in 24-well plastic tissue culture plates that had been coated with L-polylysine.
Receptor-stimulated and basal unstimulated hydrolysis of phosphoinositides was measured by the following procedure. […] The cells were then washed twice with 1 ml Dulbecco's phosphate-buffered saline (PBS) and 0.5 ml of PBS containing 4.5 g/L glucose was added. Sphingosine, psychosine, lysosulphatide, or lysosphingomyelin, prepared as the hydrochloride salt dissolved in water, were then added to produce the desired extracellular concentration in specific wells, […] The cells were then washed twice with 1 ml PBS, and pre-incubated for 15 minutes at 37°C with 0.5 ml PBS containing 10 mM LiCl and the compound to be tested was added. […] The tubes were vortexed thoroughly, then centrifuged at 500 x g for 5 minutes to separate the aqueous and chloroform phases. For each sample, a 1.5-ml aliquot of the upper (aqueous) phase was applied to a small column containing BioRad AG1X8 resin (formate form). Free [^3H]inositol and [^3H]glycerophosphoinositol were washed through the column with 5 ml of a solution containing 5 mM sodium borate and 60 mM sodium formate. The total phosphorylated [^3H] inositol fraction was eluted from the column for radiometric scintillation spectrometry analysis with 3 ml 1.0 M ammonium formate/0.1 M formic acid.
In addition, a 0.5 ml aliquot of the lower (chloroform) phase of each sample was analyzed radiometrically by scintillation spectrometry in order to determine the quantity of lipid-bound [^3H]myo-inositol. Estimation of phosphoinositide hydrolysis by phospholipase C is based upon the quantity of [^3H]inositol phosphates produced, and is expressed as the percentage of the latter relative to total free and componential [^3H]inositol (dpm ammonium formate + dpm chloroform fractions).

Entries after “also recorded” stand apart in the source; their conditions may differ. Like-named read-outs stand apart in the source and are kept apart here.

For `N[C@@H](Cn1oc(=O)[nH]c1=O)C(=O)O` [Quisqualate, quisqualate], the “HISTOLOGICAL CHANGES” value in the series with hippocampal neurons [1] was “loss of neurons in the piriform and entorhinal cortex. CA1 and dentate gyrus regions of the hippocampus”; in the series on hippocampal neurons [3] (Quisqualate 100 nmoles ICV, rats), “none observed”; in the series with hippocampal neurons [3] (Quisqualate 150 nmoles ICV, rats), “none observed”; in the series with hippocampal neurons [3] (Quisqualate 225 nmoles ICV, rats, seven days after), “loss of CA1 pyramidal neurons in the hippocampus”; in the series on hippocampal neurons [3] (Quisqualate 225 nmoles ICV, rats, seven days after, listed as quisqualate) it was “severe loss of neurons in the hippocampus; also recorded: a considerable loss of CA1 pyramidal neurons in the hippocampus”; in the series on hippocampal neurons [3] (Quisqualate 250 nmoles ICV, 'as above' = loss of neurons in the piriform and entorhinal cortex, CA1 and dentate gyrus regions of the hippocampus, listed as quisqualate), “severe loss of neurons in the hippocampus”. For the same compound, the “effective dose (to produce behavioral and histological changes)” value with male F344 rats (ICV, rats, pilot testing) is 225 nmoles. Also, the BEHAVIOR result is “-teeth chatter; also recorded: -mild scratching; also recorded: -hind leg weakness 60 minutes; also recorded: -normal placement and clasp reflex (0)” with male F344 rats (Quisqualate 100 nmoles ICV, rats, reflex score 0 normal, 3 severely abnormal); “-teeth chatter; also recorded: -localized twitches; also recorded: -mild hyperactivity walking in circles; also recorded: -hind leg weakness for 60 minutes; also recorded: -normal placement and clasp reflex (0)” with male F344 rats (Quisqualate 150 nmoles ICV, rats, reflex score 0 normal, 3 severely abnormal); “an increase in activity and teeth chattering” in the series with male F344 rats (Quisqualate 150 nmoles ICV, rats, reflex score 0 normal, 3 severely abnormal, listed as quisqualate); “-teeth chatter; also recorded: -occasional mild convulsions; also recorded: -hyperactivity - circle walking; also recorded: -episodic akinesia/tonic immobility; also recorded: -hind leg weakness; also recorded: -normal limb clasp and placement reflex (0)” with male F344 rats (Quisqualate 200 nmoles ICV, rats, reflex score 0 normal, 3 severely abnormal); “moderate convulsions” in the series on male F344 rats (Quisqualate 225 nmoles ICV, rats, reflex score 0 normal, 3 severely abnormal); “-localized spasms jerking/twitching; also recorded: -full body convulsions-severe/repeated; also recorded: -foaming at mouth; also recorded: -respiratory distress; also recorded: -abnormal placement and clasp reflex (3); also recorded: -vocalization; also recorded: -teeth chattering; also recorded: -scratching” in the series on male F344 rats (Quisqualate 250 nmoles ICV, rats, reflex score 0 normal, 3 severely abnormal). Also, the BEHAVIOR entry with male F344 rats (Quisqualate 250 nmoles ICV, rats, reflex score 0 normal, 3 severely abnormal, listed as quisqualate) is “severe convulsions and death”; in the series with male F344 rats (Quisqualate 1 µmoles ICV, rats), “-severe repeated full body convulsions; also recorded: -severe scratching; also recorded: -severe teeth chattering; also recorded: -foaming at mouth”; with male F344 rats (Quisqualate 500 µmoles ICV, rats), “vocalization”. In addition, the “death, cases” value with male F344 rats (Quisqualate 225 nmoles ICV, rats) was “-death in 60% of cases”. In addition, the time to death in the series on male F344 rats (Quisqualate 1 µmoles ICV, rats) fell in the range of 5 to 15 min. The “duration of teeth chattering, akinesia and mobilization” value in the series on male F344 rats (quisqualate alone 225 nmoles vs lysosphingolipids alone and vs quisqualate 225 nmoles + lysophingomyelin 150 nmoles, Fig. 9) is on record as “significantly (p< .01) more time engaged in these behaviors”. Moreover, the number of convulsions/spasms result with male F344 rats (quisqualate alone at 225 nmoles ICV compared to all other groups, 2 hours observation, Fig. 8) is “significantly (p.<01) more convulsions/spasms”. Moreover, the mortality in series [2] (225 nmol, Quisqualate 225 nmoles ICV, read-out: death, cases) was 60%; in series [2] (250 nmol, Quisqualate 250 nmoles ICV, read-out: death, cases), 75%; in series [2] (Quisqualate 1 µmoles ICV, read-out: dead, cases) it was 100%. In addition, in series [4], the fold induction at 100 µM was 3 ± 0.05.

For the origin of these results see patent publication EP1488698A1, “Compositions for descreasing intracellular inositol trisphosphate concentration and uses thereof” (priority 1995, dated 1997).
